Among the data in PubChem BioAssay (NCI) are TGI and GI50 values, retold here.

As a reminder, the TGI is the concentration giving total growth inhibition. By GI50 is commonly meant the concentration that inhibits growth by half.

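1) Cells in 96-well plates. 2) Compound, 48 h, 5 concentrations. 3) Linear interpolation between surrounding doses. 4) Unreached endpoint = highest concentration. GI50 = concentration required for 50% inhibition of growth. At the TGI there is no net growth.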

Among the test systems are NCI/ADR-RES ovarian; NCI-H23 lung; SK-OV-3 ovarian; MDA-MB-231 breast; ACHN renal; UO-31 renal; NCI-H226 lung; SK-MEL-28 melanoma; SNB-75 CNS; HCT-15 colon.
What all share (assay): DTP human tumour cell line panel, 48 h

Turning to `CCC(c1ccccc1)c1cc(C(C)(C)C)cc(C(C)(C)C)c1O` (stereo not given), the TGI in the experiment with NCI/ADR-RES ovarian was 28.7 µM; in the experiment with NCI-H23 lung, 30.9 µM; with SK-OV-3 ovarian it was 28.1 µM; in the experiment on MDA-MB-231 breast it was 31.9 µM; in the experiment on ACHN renal it was 32.6 µM; in the experiment with UO-31 renal it was 32.3 µM. Moreover, the TGI worked out at 35.1 µM in the experiment on NCI-H226 lung, 32.5 µM in the experiment with SK-MEL-28 melanoma, 27.2 µM with SNB-75 CNS and 30.5 µM in the experiment with HCT-15 colon.
`CN1CCN(c2ccc(NC3=CC(=O)c4ncncc4C3=O)cc2)CC1`: the GI50 with NCI/ADR-RES ovarian is 0.294 µM; in the experiment with NCI-H23 lung, 0.369 µM; in the experiment with SK-OV-3 ovarian, 1.63 µM; in the experiment on MDA-MB-231 breast it was 0.25 µM; in the experiment with ACHN renal, 0.228 µM; with UO-31 renal, 0.27 µM. Further, the GI50 in the experiment on NCI-H226 lung was 1.51 µM; with SK-MEL-28 melanoma it was 1.46 µM; with SNB-75 CNS, 1.7 µM; in the experiment on HCT-15 colon, 0.343 µM. In addition, the TGI in the experiment on NCI/ADR-RES ovarian is 1.01 µM; with NCI-H23 lung, 1.67 µM; with SK-OV-3 ovarian, 3.16 µM; in the experiment with MDA-MB-231 breast, 0.766 µM; in the experiment with ACHN renal, 0.52 µM; in the experiment on UO-31 renal, 0.761 µM. The TGI with NCI-H226 lung was found to be 3.47 µM; in the experiment on SK-MEL-28 melanoma, 3.08 µM; in the experiment with SNB-75 CNS, 3.11 µM; in the experiment with HCT-15 colon, 1.44 µM.
As to `O=C1/C(=C/c2ccc([N+](=O)[O-])o2)Oc2ccc(Cl)cc21`, the GI50 in the experiment with NCI/ADR-RES ovarian was 3.36 µM; with NCI-H23 lung, 2.11 µM; with SK-OV-3 ovarian, 13 µM; with MDA-MB-231 breast, 1.77 µM; with ACHN renal it was 1.54 µM; in the experiment on UO-31 renal, 1.35 µM. Also, the GI50 with NCI-H226 lung is 1.78 µM; in the experiment with SK-MEL-28 melanoma, 1.71 µM; with SNB-75 CNS, 1.6 µM; in the experiment with HCT-15 colon, 0.537 µM. In addition, the total growth inhibition concentration (TGI) in the experiment on NCI/ADR-RES ovarian is > 100 µM; in the experiment with NCI-H23 lung, 5.07 µM; in the experiment with SK-OV-3 ovarian, 47.2 µM; with MDA-MB-231 breast it was 4.12 µM; with ACHN renal, 2.98 µM; in the experiment with UO-31 renal, 3.87 µM. Besides, the TGI in the experiment on NCI-H226 lung was determined as 3.97 µM; with SK-MEL-28 melanoma it was 3.38 µM; in the experiment on SNB-75 CNS, 5.44 µM; with HCT-15 colon, 2.05 µM.
On to `COc1ccc2c(c1)-c1c(c3cc(OC)ccc3n(CCN(C)C)c1=O)C2=O`, for which the GI50 is 0.659 µM in the experiment on NCI/ADR-RES ovarian; 1.59 µM in the experiment on NCI-H23 lung; 1.73 µM in the experiment with SK-OV-3 ovarian; 1.54 µM in the experiment with MDA-MB-231 breast; 0.352 µM in the experiment with ACHN renal; 0.127 µM with UO-31 renal. The GI50 is 0.665 µM with NCI-H226 lung, 2.59 µM with SK-MEL-28 melanoma, 1.36 µM in the experiment with SNB-75 CNS and 0.629 µM with HCT-15 colon. The TGI in the experiment with NCI/ADR-RES ovarian is 7.41 µM; with NCI-H23 lung, 8.82 µM; in the experiment on SK-OV-3 ovarian, 8.77 µM; in the experiment on MDA-MB-231 breast, 8.07 µM; in the experiment with ACHN renal, 7.07 µM; in the experiment on UO-31 renal, 1.23 µM. Further, the TGI in the experiment on NCI-H226 lung was determined as 10.4 µM; in the experiment with SK-MEL-28 melanoma, 8.73 µM; in the experiment with SNB-75 CNS, 7.49 µM; in the experiment on HCT-15 colon, 13.1 µM.
`CC12O[C@H](C[C@@H](OC(=O)CCC(=O)O)[C@H]1O)n1c3ccccc3c3c4c(c5c6ccccc6n2c5c31)C(=O)NC4=O`: the GI50 in the experiment on NCI/ADR-RES ovarian was 6.24 µM; with NCI-H23 lung, 1.13 µM; with SK-OV-3 ovarian it was 0.323 µM; in the experiment on MDA-MB-231 breast, 6.3 µM; in the experiment with ACHN renal it was 0.727 µM; in the experiment with UO-31 renal, 0.201 µM. Moreover, the GI50 was 0.738 µM in the experiment on NCI-H226 lung, 1.51 µM with SK-MEL-28 melanoma, 1.07 µM in the experiment on SNB-75 CNS and 0.767 µM in the experiment with HCT-15 colon. In addition, the TGI is 40.8 µM in the experiment with NCI/ADR-RES ovarian; 20.3 µM in the experiment with NCI-H23 lung; 3.44 µM in the experiment on SK-OV-3 ovarian; 16.2 µM with MDA-MB-231 breast; > 50 µM in the experiment with ACHN renal; 3.55 µM in the experiment on UO-31 renal. For the same compound, the TGI in the experiment on NCI-H226 lung is 9.71 µM; in the experiment with SK-MEL-28 melanoma it was 19.8 µM; with SNB-75 CNS, 7.41 µM; with HCT-15 colon, 16.4 µM.
As for `Cc1c(-c2ccccn2)ccc2ccccc12`, the TGI in the experiment with NCI/ADR-RES ovarian was > 100 µM; in the experiment on NCI-H23 lung, > 100 µM; in the experiment on SK-OV-3 ovarian, > 100 µM; in the experiment on MDA-MB-231 breast it was > 100 µM; with ACHN renal, > 100 µM; in the experiment with UO-31 renal it was 82.9 µM. Besides, the TGI in the experiment with NCI-H226 lung, in the experiment with SK-MEL-28 melanoma, in the experiment on SNB-75 CNS and with HCT-15 colon was > 100 µM each time.
